Data reported in patent US9469650B2, “Melampomagnolide B derivatives” (BOARD OF TRUSTEES OF THE UNIVERSITY OF ARKANSAS, priority 2013, dated 2016).
Read-outs that look alike come from different tables or passages of the source.

How the values were obtained:
IGROV1 = assay: panel of 60 human tumor cell lines, growth inhibition (Ovarian Cancer); settings: Homo sapiens; for GI50: IGROV-1; for CC50: IGROV-1, read-out: LC50; for IC (TGI): IGROV-1, read-out: TGI
MDA-MB-231/ATCC = assay: panel of 60 human tumor cell lines, growth inhibition (Breast Cancer); settings: Homo sapiens; for GI50: MDA-MB-231; for CC50: MDA-MB-231, read-out: LC50; for IC (TGI): MDA-MB-231, read-out: TGI
NCI-H226 = assay: panel of 60 human tumor cell lines, growth inhibition (Non-Small Cell Lung Cancer); settings: Homo sapiens; for GI50: NCI-H226; for CC50: NCI-H226, read-out: LC50; for IC (TGI): NCI-H226, read-out: TGI
SF-268 = assay: panel of 60 human tumor cell lines, growth inhibition (CNS Cancer); settings: Homo sapiens; for GI50: SF-268; for CC50: SF-268, read-out: LC50; for IC (TGI): SF-268, read-out: TGI
HCT-15 = assay: panel of 60 human tumor cell lines, growth inhibition (Colon Cancer); settings: Homo sapiens; for GI50: HCT-15; for CC50: HCT-15, read-out: LC50; for IC (TGI): HCT-15, read-out: TGI
M14 = assay: panel of 60 human tumor cell lines, growth inhibition (Melanoma); settings: Homo sapiens; for GI50: M14; for CC50: M14, read-out: LC50; for IC (TGI): M14, read-out: TGI
SN12C = assay: panel of 60 human tumor cell lines, growth inhibition (Renal Cancer); settings: Homo sapiens; for CC50: read-out: LC50; for IC (TGI): read-out: TGI
NCI-H460 = assay: panel of 60 human tumor cell lines, growth inhibition (Non-Small Cell Lung Cancer); settings: Homo sapiens; for GI50: NCI-H460; for CC50: NCI-H460, read-out: LC50
SK-MEL-2 = assay: panel of 60 human tumor cell lines, growth inhibition (Melanoma); settings: Homo sapiens; for GI50: SK-MEL-2; for CC50: SK-MEL-2, read-out: LC50; for IC (TGI): SK-MEL-2, read-out: TGI
MDA-MB-435 = assay: as above; settings: Homo sapiens; for GI50: MDA-MB-435; for CC50: MDA-MB-435, read-out: LC50; for IC (TGI): MDA-MB-435, read-out: TGI
BT-549 = assay: panel of 60 human tumor cell lines, growth inhibition (Breast Cancer); settings: Homo sapiens; for GI50: BT-549; for CC50: BT-549, read-out: LC50; for IC (TGI): BT-549, read-out: TGI
SK-MEL-5 = assay: panel of 60 human tumor cell lines, growth inhibition (Melanoma); settings: Homo sapiens; for GI50: SK-MEL-5; for CC50: SK-MEL-5, read-out: LC50; for IC (TGI): SK-MEL-5, read-out: TGI
MCF7 = assay: panel of 60 human tumor cell lines, growth inhibition (Breast Cancer); settings: Homo sapiens; for GI50: MCF7, MCF7, NCI five dose; for CC50: MCF7, read-out: LC50; for IC (TGI): MCF7, read-out: TGI
OVCAR-8 = assay: panel of 60 human tumor cell lines, growth inhibition (Ovarian Cancer); settings: Homo sapiens; for GI50: OVCAR-8; for CC50: OVCAR-8, read-out: LC50; for IC (TGI): OVCAR-8, read-out: TGI
A549/ATCC = assay: panel of 60 human tumor cell lines, growth inhibition (Non-Small Cell Lung Cancer); settings: Homo sapiens; for GI50: A549; for CC50: A549, read-out: LC50; for IC (TGI): A549, read-out: TGI
TK-10 = assay: panel of 60 human tumor cell lines, growth inhibition (Renal Cancer); settings: Homo sapiens; for GI50: TK-10, TK-10, NCI five dose; for CC50: TK-10, read-out: LC50; for IC (TGI): TK-10, read-out: TGI
ACHN = assay: as above; settings: Homo sapiens; for CC50: read-out: LC50; for IC (TGI): read-out: TGI
HS 578T = assay: panel of 60 human tumor cell lines, growth inhibition (Breast Cancer); settings: Homo sapiens, Hs-578T; for CC50: read-out: LC50; for IC (TGI): read-out: TGI

C=C1C(=O)O[C@H]2[C@H]1CC/C(COC(=O)OCCN(C)C)=C\CC[C@@]1(C)O[C@@H]21 [JVM 2-35]
GI50 (IGROV1): 17.7 µM
CC50 (IGROV1): > 100 µM
IC (TGI) (IGROV1): 44 µM
Percent Growth (HL-60(TB); Log10 Concentration −4.0): −52%
Percent Growth (HL-60(TB); Log10 Concentration −5.0): −17%
Percent Growth (HL-60(TB); Log10 Concentration −6.0): 72%
Percent Growth (HL-60(TB); Log10 Concentration −7.0): 83%
Percent Growth (HL-60(TB); Log10 Concentration −8.0): 94%
GI50 (MDA-MB-231/ATCC): 5.86 µM
CC50 (MDA-MB-231/ATCC): 56.9 µM
IC (TGI) (MDA-MB-231/ATCC): 21.3 µM
GI50 (NCI-H226): 11.9 µM
CC50 (NCI-H226): 89.9 µM
IC (TGI) (NCI-H226): 32.7 µM
GI50 (SF-268): 11.7 µM
CC50 (SF-268): 69.3 µM
IC (TGI) (SF-268): 28.5 µM
GI50 (HCT-15): 2.78 µM
CC50 (HCT-15): 44.3 µM
IC (TGI) (HCT-15): 12.8 µM
GI50 (M14): 3.71 µM
CC50 (M14): 45.6 µM
IC (TGI) (M14): 16.4 µM
GI50 (SN12C): 13.2 µM
CC50 (SN12C): > 100 µM
IC (TGI) (SN12C): 39.7 µM
GI50 (NCI-H460): 20.7 µM
CC50 (NCI-H460): > 100 µM
IC (TGI) (NCI-H460; NCI-H460, read-out: TGI): 52.1 µM
GI50 (SK-MEL-2): 15.2 µM
CC50 (SK-MEL-2): 86.6 µM
IC (TGI) (SK-MEL-2): 36.3 µM
GI50 (MDA-MB-435): 4.03 µM
CC50 (MDA-MB-435): 45.7 µM
IC (TGI) (MDA-MB-435): 16.3 µM
GI50 (BT-549): 5.82 µM
CC50 (BT-549): 44.8 µM
IC (TGI) (BT-549): 19.5 µM
GI50 (SK-MEL-5): 11.5 µM
CC50 (SK-MEL-5): 53.8 µM
IC (TGI) (SK-MEL-5): 24.9 µM
GI50 (MCF7): 2.92 µM
CC50 (MCF7): 56.3 µM
IC (TGI) (MCF7): 13 µM
GI50 (OVCAR-8): 13.5 µM
CC50 (OVCAR-8): 96 µM
IC (TGI) (OVCAR-8): 36 µM
GI50 (A549/ATCC): 16.3 µM
CC50 (A549/ATCC): 71.6 µM
IC (TGI) (A549/ATCC): 34.2 µM
GI50 (TK-10): 3.92 µM
CC50 (TK-10): 43.8 µM
IC (TGI) (TK-10): 15.1 µM
GI50 (ACHN): 3.26 µM
CC50 (ACHN): 40.9 µM
IC (TGI) (ACHN): 13.4 µM
GI50 (HS 578T): 13.6 µM
CC50 (HS 578T): > 100 µM
IC (TGI) (HS 578T): 59.3 µM

C=C1C(=O)O[C@H]2[C@H]1CC/C(COC(=O)OC)=C\CC[C@@]1(C)O[C@@H]21 [JVM 2-40]
GI50 (IGROV1): 16.6 µM
CC50 (IGROV1): 85.8 µM
IC (TGI) (IGROV1): 37.7 µM
Percent Growth (HL-60(TB); Log10 Concentration −4.0): −55%
Percent Growth (HL-60(TB); Log10 Concentration −5.0): −12%
Percent Growth (HL-60(TB); Log10 Concentration −6.0): 68%
Percent Growth (HL-60(TB); Log10 Concentration −7.0): 91%
Percent Growth (HL-60(TB); Log10 Concentration −8.0): 97%
GI50 (MDA-MB-231/ATCC): 3.54 µM
CC50 (MDA-MB-231/ATCC): 46.7 µM
IC (TGI) (MDA-MB-231/ATCC): 16.6 µM
GI50 (NCI-H226): 7.07 µM
CC50 (NCI-H226): 87.7 µM
IC (TGI) (NCI-H226): 27.4 µM
GI50 (SF-268): 7.36 µM
CC50 (SF-268): 62.8 µM
IC (TGI) (SF-268): 23.6 µM
GI50 (HCT-15): 1.96 µM
CC50 (HCT-15): 28.9 µM
IC (TGI) (HCT-15): 6.78 µM
GI50 (M14): 2.91 µM
CC50 (M14): 42.2 µM
IC (TGI) (M14): 14.1 µM
GI50 (SN12C): 6.31 µM
CC50 (SN12C): 64.4 µM
IC (TGI) (SN12C): 22.6 µM
GI50 (NCI-H460): 16.7 µM
CC50 (NCI-H460): 89.7 µM
GI50 (SK-MEL-2): 10.6 µM
CC50 (SK-MEL-2): 59.5 µM
IC (TGI) (SK-MEL-2): 25.1 µM
GI50 (MDA-MB-435): 3.63 µM
CC50 (MDA-MB-435): 55.4 µM
IC (TGI) (MDA-MB-435): 16.8 µM
GI50 (BT-549): 5.74 µM
CC50 (BT-549): 43.5 µM
IC (TGI) (BT-549): 18.7 µM
GI50 (SK-MEL-5): 7.58 µM
CC50 (SK-MEL-5): 50.6 µM
IC (TGI) (SK-MEL-5): 21.5 µM
GI50 (MCF7): 2.28 µM
CC50 (MCF7): 49.8 µM
IC (TGI) (MCF7): 12.2 µM
GI50 (OVCAR-8): 8.95 µM
CC50 (OVCAR-8): 65.6 µM
IC (TGI) (OVCAR-8): 24.7 µM
GI50 (A549/ATCC): 13.3 µM
CC50 (A549/ATCC): 61.3 µM
IC (TGI) (A549/ATCC): 28.6 µM
GI50 (TK-10): 2.65 µM
CC50 (TK-10): 32.9 µM
IC (TGI) (TK-10): 10.8 µM
GI50 (ACHN): 2.4 µM
CC50 (ACHN): 32.2 µM
IC (TGI) (ACHN): 8.17 µM
GI50 (HS 578T): 4.72 µM
CC50 (HS 578T): > 100 µM
IC (TGI) (HS 578T): 38.9 µM
